Drawing on patent US11098032B2, “Pyran dervatives as CYP11A1 (cytochrome P450 monooxygenase 11A1) inhibitors” (ORION CORPORATION, priority 2016, dated 2021), this text covers IC50 for 30 compounds.

The pIC50 is −log10 of the IC50, conventionally taken in molar units.

pIC50: −log10 of the molar value. Where only a bound is given, the exact number is not on record here.

The test concerns the target T1, CYP11A1 (Homo sapiens, UniProt P05108).
T1 construct: human H295R adrenocortical carcinoma cell line was used as source of enzyme; endogenous in cells; host or cells: H295R human adrenocortical carcinoma cells
T1 sequence (P05108 40-521): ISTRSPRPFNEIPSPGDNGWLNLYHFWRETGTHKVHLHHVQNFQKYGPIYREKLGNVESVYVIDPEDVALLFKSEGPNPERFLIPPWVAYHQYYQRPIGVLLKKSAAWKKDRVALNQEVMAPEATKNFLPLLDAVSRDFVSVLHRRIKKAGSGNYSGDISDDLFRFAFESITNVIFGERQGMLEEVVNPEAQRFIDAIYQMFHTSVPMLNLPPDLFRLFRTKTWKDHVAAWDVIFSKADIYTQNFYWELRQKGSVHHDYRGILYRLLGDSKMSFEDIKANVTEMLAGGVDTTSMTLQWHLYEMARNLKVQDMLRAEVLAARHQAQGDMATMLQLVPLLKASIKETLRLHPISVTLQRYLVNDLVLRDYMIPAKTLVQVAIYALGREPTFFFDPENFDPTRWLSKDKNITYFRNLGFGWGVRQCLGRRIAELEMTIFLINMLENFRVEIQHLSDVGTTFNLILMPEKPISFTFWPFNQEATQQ
Kind of test: CYP11A1 inhibition: modified isocaproic acid release assay (IARA) in H295R cells. The test is classed as cell-based. The note with it: human H295R adrenocortical carcinoma cells treated three days, 3 nM [24,25-3H]-labelled cholesterol, 1% DMSO, 10 concentrations in duplicates; read-out: IC50 of the test compounds on CYP11A1 inhibition. The procedure:
The ability of the test compounds to inhibit conversion of cholesterole to pregnenolone and isocaproic acid was measured by modification of isocaproic acid release assay (IARA) described by Ruangwises et. al. (Biology of Reproduction 1991; 45(1):143-50) except that human H295R adrenocortical carcinoma cell line was used as source of enzyme and extraction was done with dextran-coated charcoal suspension (Isomaa, V. et al., Endocrinology 1982; 111(3):833-843). […] To determine the half maximal inhibitory concentration (IC50) of the test compounds on CYP11A1 inhibition, the cells were treated for three days with increasing concentrations of the test compounds in the presence of 3 nM [24,25-3H]-labelled cholesterol (American Radiolabelled Chemicals). The final DMSO concentration was 1%. Cell culture medium was extracted with dextran-coated charcoal suspension and the radiolabelled isocaproic acid was determined by mixing 100 μl of supernatant fraction in 200 μl of scintillation fluid (OptiPhase SuperMix, Perkin Elmer). Radioactivity was measured using a Microbeta scintillation counter (1450 MicroBeta Trilux, Wallac). All the test compounds were studied at 10 concentrations in duplicates.
Take `CN(C)C(=O)C1CCC(COc2coc(CN3Cc4ccccc4C3)cc2=O)CC1` (stereo not drawn) [Compound 217, 4-(((6-(Isoindolin-2-ylmethyl)-4-oxo-4H-pyran-3-yl)oxy)methyl)-N,N-dimethyl-cyclohexane-1-carboxamide]: the negative-log IC50 (pIC50) is over 6.82.

`CN(CCC#N)S(=O)(=O)c1ccc(COc2coc(CN3Cc4ccccc4C3)cc2=O)cc1` [Compound 23, N-(2-Cyanoethyl)-4-(((6-(isoindolin-2-ylmethyl)-4-oxo-4H-pyran-3-yl)oxy)-methyl)-N-methylbenzenesulfonamide]: the pIC50 was over 6.82.

Consider `CCC(=O)N1CCC(COc2coc(CN3Cc4ccc(C(F)(F)F)cc4C3)cc2=O)CC1` [Compound 244a, 5-((1-Propionylpiperidin-4-yl)methoxy)-2-((5-(trifluoromethyl)isoindolin-2-yl)methyl)-4H-pyran-4-one], for which the pIC50 is over 6.82.

Regarding `O=c1cc(CN2Cc3ccccc3C2)occ1OCc1ccc(C2(O)CCC2)cc1` [Compound 111, 5-((4-(1-Hydroxycyclobutyl)benzyl)oxy)-2-(isoindolin-2-ylmethyl)-4H-pyran-4-one], the pIC50 is over 6.82.

In the case of `CS(=O)(=O)N1CC=C(COc2coc(CN3Cc4ccccc4C3)cc2=O)CC1` [Compound 98, 2-(Isoindolin-2-ylmethyl)-5-((1-(methylsulfonyl)-1,2,3,6-tetrahydropyridin-4-yl)methoxy)-4H-pyran-4-one], the negative-log IC50 (pIC50) is 6.52 to 6.82.

As for `N#Cc1ccc(COc2coc(CN3CCc4ccccc4C3)cc2=O)c(F)c1` [Compound 51, 4-(((6-((3,4-Dihydroisoquinolin-2(1H)-yl)methyl)-4-oxo-4H-pyran-3-yl)oxy)-methyl)-3-fluorobenzonitrile], the pIC50 was 5.70 to 6.52.

As to `CS(=N)(=O)c1ccc(COc2coc(CN3Cc4ccc(F)cc4C3)cc2=O)cc1` (stereo not drawn) [Compound 88, 2-((5-Fluoroisoindolin-2-yl)methyl)-5-((4-(S-methylsulfonimidoyl)benzyl)oxy)-4H-pyran-4-one], the pIC50 is 6.52 to 6.82.

With `CC(c1cc(=O)c(OCc2ccc(S(C)(=N)=O)cc2)co1)N1Cc2ccccc2C1` (stereo not drawn) [Compound 91, 2-(1-(Isoindolin-2-yl)ethyl)-5-((4-(S-methylsulfonimidoyl)benzyl)oxy)-4H-pyran-4-one], the pIC50 was over 6.82.

As for `O=c1cc(CN2CCc3ccccc3C2)occ1OCc1ccc(C2(O)COC2)cc1` [Compound 117, 2-((3,4-Dihydroisoquinolin-2(1H)-yl)methyl)-5-((4-(3-hydroxyoxetan-3-yl)-benzyl)oxy)-4H-pyran-4-one], the negative logarithm of the IC50 (pIC50) is 5.70 to 6.52.

Regarding `O=c1cc(CN2Cc3ccccc3C2)occ1OCc1ccc(S(=O)(=O)C2COC2)cc1` [Compound 233, 2-(Isoindolin-2-ylmethyl)-5-((4-(oxetan-3-ylsulfonyl)benzyl)oxy)-4H-pyran-4-one], the pIC50 was 6.52 to 6.82.

In the case of `O=c1cc(CN2Cc3ccccc3C2)occ1OCc1ccc(S(=O)(=O)N2CCC2)cc1` [Compound 9, 5-((4-(Azetidin-1-ylsulfonyl)benzyl)oxy)-2-(isoindolin-2-ylmethyl)-4H-pyran-4-one], the pIC50 was 6.52 to 6.82.

Consider `C=CC(=O)N1CCC(COc2coc(CN3Cc4ccccc4C3)cc2=O)CC1` [Compound 258, 5-((1-Acryloylpiperidin-4-yl)methoxy)-2-(isoindolin-2-ylmethyl)-4H-pyran-4-one], for which the negative-log IC50 (pIC50) was 6.52 to 6.82.

On to `CS(=O)(=O)N1CCC(COc2coc(CN3Cc4ccccc4C3)cc2=O)CC1` [Compound 185, 2-(Isoindolin-2-ylmethyl)-5-((1-(methylsulfonyl)piperidin-4-yl)methoxy)-4H-pyran-4-one], for which the negative logarithm of the IC50 (pIC50) was over 6.82.

Consider `CC(=O)N(C)S(=O)(=O)c1ccc(COc2coc(CN3Cc4ccccc4C3)cc2=O)cc1` [Compound 70, N-((4-(((6-(Isoindolin-2-ylmethyl)-4-oxo-4H-pyran-3-yl)oxy)methyl)phenyl)-sulfonyl)-N-methylacetamide], for which the negative logarithm of the IC50 (pIC50) was over 6.82.

Turning to `CS(=N)c1ccc(COc2coc(CN3Cc4ccc(C(F)(F)F)cc4C3)cc2=O)cc1` (stereo not drawn) [Compound 74, 5-((4-(S-methylsulfinimidoyl)benzyl)oxy)-2-((5-(trifluoromethyl)isoindolin-2-yl)methyl)-4H-pyran-4-one], the pIC50 is over 6.82.

With `CC(C)(C)NC(=O)c1ccc(COc2coc(CN3CCc4ccccc4C3)cc2=O)cc1` [Compound 135, N-(tert-Butyl)-4-(((6-((3,4-dihydroisoquinolin-2(1H)-yl)methyl)-4-oxo-4H-pyran-3-yl)oxy)methyl)benzamide], the pIC50 is 6.52 to 6.82.

Turning to `C#CCNC(=O)c1ccc(COc2coc(CN3Cc4ccccc4C3)cc2=O)cc1` [Compound 141, 4-(((6-(Isoindolin-2-ylmethyl)-4-oxo-4H-pyran-3-yl)oxy)methyl)-N-(prop-2-yn-1-yl)benzamide], the negative logarithm of the IC50 (pIC50) is 5.70 to 6.52.

As to `CC(C)(O)c1ccc(COc2coc(CN3Cc4ccccc4C3)cc2=O)cc1` [Compound 49, 5-((4-(2-Hydroxypropan-2-yl)benzyl)oxy)-2-(isoindolin-2-ylmethyl)-4H-pyran-4-one], the pIC50 was over 6.82.

For the compound `O=C(c1ccc(COc2coc(CN3CCc4ccccc4C3)cc2=O)cc1)N1CCCC(O)C1` (stereo not drawn) [Compound 149, 2-((3,4-Dihydroisoquinolin-2(1H)-yl)methyl)-5-((4-(3-hydroxypiperidine-1-carbonyl)benzyl)oxy)-4H-pyran-4-one], the negative logarithm of the IC50 (pIC50) was 5.70 to 6.52.

In the case of `O=C(c1ccc(COc2coc(CN3Cc4ccc(F)cc4C3)cc2=O)cc1)N1CCC1` [Compound 150, 5-((4-(Azetidine-1-carbonyl)benzyl)oxy)-2-((5-fluoroisoindolin-2-yl)methyl)-4H-pyran-4-one], the pIC50 was 5.70 to 6.52.

Regarding `CN(C)C(=O)c1ccc(COc2coc(CN3Cc4ccc(Cl)cc4C3)cc2=O)cc1` [Compound 137, 4-(((6-((5-Chloroisoindolin-2-yl)methyl)-4-oxo-4H-pyran-3-yl)oxy)methyl)-N,N-dimethylbenzamide], the pIC50 was over 6.82.

Regarding `CS(=O)(=O)N(C1CCC(COc2coc(CN3Cc4ccccc4C3)cc2=O)CC1)C1CC1` (stereo not drawn) [Compound 219, N-Cyclopropyl-N-(4-(((6-(isoindolin-2-ylmethyl)-4-oxo-4H-pyran-3-yl)oxy)-methyl)cyclohexyl)methanesulfonamide], the pIC50 is over 6.82.

Regarding `COC(=O)c1ccc(COc2coc(CN3Cc4ccccc4C3)cc2=O)cc1` [Compound 60, Methyl 4-(((6-(isoindolin-2-ylmethyl)-4-oxo-4H-pyran-3-yl)oxy)methyl)benzoate], the pIC50 was 5.70 to 6.52.

As to `CS(=O)(=O)N1CCC(CCCOc2coc(CN3Cc4ccccc4C3)cc2=O)CC1` [Compound 213, 2-(Isoindolin-2-ylmethyl)-5-(3-(1-(methylsulfonyl)piperidin-4-yl)propoxy)-4H-pyran-4-one], the negative-log IC50 (pIC50) was over 6.82.

Take `CNC(=O)c1ccc(COc2coc(CN3CCc4ccccc4C3)cc2=O)cc1F` [Compound 80, 4-(((6-((3,4-Dihydroisoquinolin-2(1H)-yl)methyl)-4-oxo-4H-pyran-3-yl)oxy)-methyl)-2-fluoro-N-methylbenzamide]: the negative-log IC50 (pIC50) was 5.70 to 6.52.

In the case of `NC(=O)c1ccc(COc2coc(CN3Cc4ccccc4C3)cc2=O)cc1F` [Compound 171, 2-Fluoro-4-(((6-(isoindolin-2-ylmethyl)-4-oxo-4H-pyran-3-yl)oxy)methyl)-benzamide], the negative-log IC50 (pIC50) was 5.70 to 6.52.

As to `O=C(N1CCC1)N1CCC(COc2coc(CN3Cc4ccccc4C3)cc2=O)CC1` [Compound 231, 5-((1-(Azetidine-1-carbonyl)piperidin-4-yl)methoxy)-2-(isoindolin-2-ylmethyl)-4H-pyran-4-one], the negative-log IC50 (pIC50) was 6.52 to 6.82.

As for `O=c1cc(CN2Cc3ccccc3C2)occ1OCC1CCN(S(=O)(=O)N2CCCC2)CC1` [Compound 267, 2-(Isoindolin-2-ylmethyl)-5-((1-(pyrrolidin-1-ylsulfonyl)piperidin-4-yl)methoxy)-4H-pyran-4-one], the negative logarithm of the IC50 (pIC50) was 6.52 to 6.82.

Consider `CN(C)C(=O)c1ccc(COc2coc(CN3Cc4cccc(F)c4C3)cc2=O)cc1` [Compound 32, 4-(((6-((4-Fluoroisoindolin-2-yl)methyl)-4-oxo-4H-pyran-3-yl)oxy)methyl)-N,N-dimethylbenzamide], for which the negative logarithm of the IC50 (pIC50) was 5.70 to 6.52.

For the compound `CN(C)C(=O)c1ccc(CCOc2coc(CN3Cc4ccccc4C3)cc2=O)cc1` [Compound 112, 4-(2-((6-(Isoindolin-2-ylmethyl)-4-oxo-4H-pyran-3-yl)oxy)ethyl)-N,N-dimethylbenzamide], the pIC50 was 5.70 to 6.52.
